{
  "source": "patent US7511027B2",
  "about": "“Method of treating hepatitis delta virus infection” (Georgetown University, priority 2000, dated 2009)",
  "key": {"[1]": {"system": "WHV surface antigen", "test": "Woodchuck model of chronic HDV infection: serum WHV surface antigen", "type": "in vivo", "experimental": "(§1) The woodchuck was used as an experimental model of chronic HDV infection to assess the effect of L-FMAU treatment on HDV replication. Woodchucks chronically infected with WHV were infected with a woodchuck-adapted HDV inoculum derived from a laboratory infectious clone. Nine of eleven infected animals were determined to have chronic HDV infection, as defined by RT/PCR-detectable HDV viremia (Niro et al. (1997) Hepatology 25, 728-734) for at least 74% of bleed dates for at least 11 months prior to the initiation of treatment. The range of duration of viremia prior to the start of the study was 11.4-20 months; the range of positive bleed dates was 74% to 100%. Animals in the treatment group (4) were given 10 mg/kg L-FMAU daily; animals in the control group (5) were given placebo. Serum samples were obtained before the initiation of treatment, and at weeks 2, 4, 8, 12, 16 and 20. Serum samples were analyzed for WHV DNA, WHV surface antigen and HDV RNA."}, "[2]": {"system": "WHV", "test": "Woodchuck model of chronic HDV infection: serum WHV DNA", "type": "in vivo", "experimental": "as §1"}, "[3]": {"system": "HDV", "test": "Woodchuck model of chronic HDV infection: serum HDV RNA", "type": "in vivo", "experimental": "as §1"}, "[4]": {"system": "HDV", "details": "in vivo; cited from earlier work"}, "[5]": {"system": "HDV", "details": "in vitro; cited from earlier work"}, "[6]": {"system": "hepatocytes", "details": "cited from earlier work"}, "[7]": {"details": "one animal in the treated group, animal 4543"}},
  "data": [
    {"compound": "Cc1cn([C@H]2O[C@@H](CO)[C@H](O)[C@H]2F)c(=O)[nH]c1=O", "note": "[L-FMAU, 2′-fluoro-5-methyl-β-L-arabinofuranosyl-uridine]", "values": [
      {"measurement": "decrease in surface antigen levels", "setting": "[1]; 10 mg/kg L-FMAU daily, by 12 weeks, all but one (animal 4543) of the treated animals (FIG. 6C)", "result": "~1,000 fold"},
      {"measurement": "levels of surface antigen, animal 4543", "setting": "[1]; [7]", "result": "did not exhibit decreased levels"},
      {"measurement": "serum WHsAg (FIG. 6C)", "setting": "[1]; over twenty weeks of treatment", "result": "significant decrease"},
      {"measurement": "surface antigen concentration after which HDV viremia became undetectable", "setting": "[1]; treated animals with decreased surface antigen, sustained for remainder of treatment", "result": "less than 1 microgram/mL"},
      {"measurement": "drop of WHsAg levels during treatment", "setting": "[1]; treated woodchucks 4878, 4879 and 4883", "result": "more than 100 fold"},
      {"measurement": "decrease in serum WHV DNA", "setting": "[2]; 10 mg/kg L-FMAU daily, by 4 weeks of treatment, all treated animals (FIG. 6B)", "result": "> 10^7 fold"},
      {"measurement": "serum WHV-DNA (FIG. 6B)", "setting": "[2]; over twenty weeks of treatment", "result": "significant decrease"},
      {"measurement": "HDV RNA in serum", "setting": "[3]; 10 mg/kg L-FMAU daily, by 16 weeks of treatment (FIG. 6A)", "result": "undetectable in ¾ treated animals"},
      {"measurement": "HDV viremia, animal 4543", "setting": "[3]; [7]", "result": "remained high"},
      {"measurement": "serum HDV-RNA (FIG. 6A)", "setting": "[3]; over twenty weeks of treatment", "result": "significant decrease"},
      {"measurement": "mean serum HDV RNA", "setting": "[3]; woodchucks 4878, 4879, 4883, by 8 weeks of treatment vs start of treatment and vs five untreated animals (FIG. 8)", "result": "dramatic decline"}
    ]},
    {"compound": "NC(=O)c1ncn([C@@H]2O[C@H](CO)[C@@H](O)[C@H]2O)n1", "note": "[Ribavirin]", "values": [
      {"measurement": "side-effects", "setting": "[4]", "result": "severe side-effects"},
      {"measurement": "virological or biochemical parameters", "setting": "[4]", "result": "did not significantly affect"}
    ]},
    {"compound": "Nc1nc2c(ncn2COCCO)c(=O)[nH]1", "note": "[Acyclovir]", "values": [
      {"measurement": "HDV replication", "setting": "[5]", "result": "enhances"}
    ]},
    {"compound": "Cc1ccc(C(=O)Nc2ccc(S(=O)(=O)O)c3cc(S(=O)(=O)O)cc(S(=O)(=O)O)c23)cc1NC(=O)c1cccc(NC(=O)Nc2cccc(C(=O)Nc3cc(C(=O)Nc4ccc(S(=O)(=O)O)c5cc(S(=O)(=O)O)cc(S(=O)(=O)O)c45)ccc3C)c2)c1", "note": "[suramin]", "values": [
      {"measurement": "entry of the virion into hepatocytes", "setting": "[6]", "result": "blocks"}
    ]}
  ]
}
